Experimental data taken from patent US11377442B2, “Small molecule agonists and antagonists of NR2F6 activity” (ZANDER THERAPEUTICS, INC., priority 2016, dated 2022).
Like-named read-outs stand apart in the source and are kept apart here.

Experiments:
Type in all cases: cell-based
Renilla = Renilla signal in NR2F6 agonist screening, cmpd/DMSO; details: for fold induction at 2 µM / fold induction at 10 µM / fold induction at 40 µM: Renilla, read-out: Renilla F4, cmpd/DMSO (mean)
NR2F6 = biological target: T1, NR2F6 (Homo sapiens, UniProt P10588); test: NR2F6 agonist screening, Firefly signal cmpd/DMSO
T1 construct: expressed in transfected cells; also transient transfection
T1 sequence (P10588 1-404): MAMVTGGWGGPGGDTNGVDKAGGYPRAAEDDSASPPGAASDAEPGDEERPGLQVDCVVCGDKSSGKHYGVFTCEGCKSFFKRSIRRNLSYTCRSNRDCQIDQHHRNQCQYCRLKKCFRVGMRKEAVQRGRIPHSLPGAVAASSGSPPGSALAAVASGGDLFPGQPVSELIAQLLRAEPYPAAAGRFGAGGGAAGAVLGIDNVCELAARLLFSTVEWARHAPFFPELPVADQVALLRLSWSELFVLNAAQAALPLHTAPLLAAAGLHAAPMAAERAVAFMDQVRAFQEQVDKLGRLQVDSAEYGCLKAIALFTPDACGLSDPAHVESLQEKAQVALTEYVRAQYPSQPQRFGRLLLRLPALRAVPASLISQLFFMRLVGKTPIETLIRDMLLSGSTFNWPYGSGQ

ERα [1] = biological target: T2, ERα (Homo sapiens, UniProt P03372); test: Counterscreening, Firefly signal with ERα transient transfection (Firefly_ERa)
T2 construct: expressed in transfected cells
T2 sequence (P03372 1-595): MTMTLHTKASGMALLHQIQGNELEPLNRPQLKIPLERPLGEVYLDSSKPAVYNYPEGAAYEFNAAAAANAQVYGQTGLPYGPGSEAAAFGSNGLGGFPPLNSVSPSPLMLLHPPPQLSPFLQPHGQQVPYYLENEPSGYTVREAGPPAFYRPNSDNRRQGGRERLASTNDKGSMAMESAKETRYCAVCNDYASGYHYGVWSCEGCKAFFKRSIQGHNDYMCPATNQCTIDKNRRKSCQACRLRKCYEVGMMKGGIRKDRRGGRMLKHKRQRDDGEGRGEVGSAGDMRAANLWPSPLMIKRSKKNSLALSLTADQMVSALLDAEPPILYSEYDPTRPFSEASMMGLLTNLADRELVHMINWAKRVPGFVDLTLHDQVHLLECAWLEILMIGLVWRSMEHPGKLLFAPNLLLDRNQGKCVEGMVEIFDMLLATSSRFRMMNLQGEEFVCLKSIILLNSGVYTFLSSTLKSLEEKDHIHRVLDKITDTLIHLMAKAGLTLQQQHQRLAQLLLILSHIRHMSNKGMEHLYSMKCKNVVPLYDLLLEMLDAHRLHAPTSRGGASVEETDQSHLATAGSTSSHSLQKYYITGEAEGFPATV

ERα [2] = biological target: T2, ERα; test: as above; details: 10 uM
Method: The methodology for screening candidate compounds as NR2F6 agonists was as follows: For primary screening, hit criteria was ACT %>DMSO control+5*SD (DSO control) at 10 μM, or any compound with S/B>2. For rescreening, hit criteria was ACT %>DMSO control+3*SD (DSO control) in each replicate at 10 μM. For counterscreening, hit criteria was mean ACT<DMSO control+3*SD (DMSO control) with ERα transient transfection in duplicate at 10 μM.

Renilla_ERa = test: Renilla signal in ERα counterscreen (Renilla_ERa); details: for fold induction at 2 µM / fold induction at 10 µM / fold induction at 40 µM: read-out: Renilla ERalpha transient, cmpd/DMSO (mean)

SMILES	Firefly F4, cmpd/DMSO (mean) (NR2F6; 2 uM, clone F4)	Firefly F4, cmpd/DMSO (mean) (NR2F6; 10 uM, clone F4)	Firefly F4, cmpd/DMSO (mean) (NR2F6; 40 uM, clone F4)	Firefly ERalpha transient, cmpd/DMSO (mean) (ERα [1]; 2 uM)	Firefly ERalpha transient, cmpd/DMSO (mean) (ERα [1]; 40 uM)	Firefly ERalpha transient, cmpd/DMSO (mean) (ERα [2])	fold induction at 2 µM (Renilla; Table 15, 2 uM)	fold induction at 10 µM (Renilla; Table 15, 10 uM)	fold induction at 40 µM (Renilla; Table 15, 40 uM)	Firefly F4, cmpd/DMSO (mean) (NR2F6; Table 15, 2 uM)	Firefly F4, cmpd/DMSO (mean) (NR2F6; Table 15, 10 uM)	Firefly F4, cmpd/DMSO (mean) (NR2F6; Table 15, 40 uM)	Firefly ERalpha transient, cmpd/DMSO (mean) (ERα [1]; Table 15, 2 uM)	Firefly ERalpha transient, cmpd/DMSO (mean) (ERα [1]; Table 15, 40 uM)	Firefly ERalpha transient, cmpd/DMSO (mean) (ERα [2]; Table 15)	fold induction at 2 µM (Renilla_ERa; Table 15, 2 uM)	fold induction at 10 µM (Renilla_ERa; Table 15, 10 uM)	fold induction at 40 µM (Renilla_ERa; Table 15, 40 uM)	further results
CCCCCCNc1nc(OCC)nc(N2CCn3c(cccc3=O)C2)n1 [Compound 40]	0.9	1.0	0.8	1.0	0.7	1.0	–	–	–	–	–	–	–	–	–	–	–	–	Renilla F4, cmpd/DMSO (mean) (Renilla; 2 uM, clone F4): 1.1; Renilla F4, cmpd/DMSO (mean) (Renilla; 10 uM, clone F4): 1.3; Renilla F4, cmpd/DMSO (mean) (Renilla; 40 uM, clone F4): 1.0; Renilla ERalpha transient, cmpd/DMSO (mean) (Renilla_ERa; 2 uM): 1.2; Renilla ERalpha transient, cmpd/DMSO (mean) (Renilla_ERa; 10 uM): 1.2; Renilla ERalpha transient, cmpd/DMSO (mean) (Renilla_ERa; 40 uM): 1.1
CCCCCCNc1nc(OC)nc(N2CCn3c(cccc3=O)C2)n1 [Compound 41]	0.8	0.9	0.9	1.5	1.4	1.5	–	–	–	–	–	–	–	–	–	–	–	–	Renilla F4, cmpd/DMSO (mean) (Renilla; 2 uM, clone F4): 1.1; Renilla F4, cmpd/DMSO (mean) (Renilla; 10 uM, clone F4): 1.1; Renilla F4, cmpd/DMSO (mean) (Renilla; 40 uM, clone F4): 1.1; Renilla ERalpha transient, cmpd/DMSO (mean) (Renilla_ERa; 2 uM): 1.2; Renilla ERalpha transient, cmpd/DMSO (mean) (Renilla_ERa; 10 uM): 1.2; Renilla ERalpha transient, cmpd/DMSO (mean) (Renilla_ERa; 40 uM): 1.1
O=c1cccc2n1CCN(c1nc(NCC3CCCO3)nc(N3CCCC3)n1)C2 (stereo not drawn) [Compound 42]	1.6	0.8	0.9	2.3	1.0	1.0	–	–	–	–	–	–	–	–	–	–	–	–	Renilla F4, cmpd/DMSO (mean) (Renilla; 2 uM, clone F4): 0.7; Renilla F4, cmpd/DMSO (mean) (Renilla; 10 uM, clone F4): 0.8; Renilla F4, cmpd/DMSO (mean) (Renilla; 40 uM, clone F4): 1.1; Renilla ERalpha transient, cmpd/DMSO (mean) (Renilla_ERa; 2 uM): 0.9; Renilla ERalpha transient, cmpd/DMSO (mean) (Renilla_ERa; 10 uM): 1.0; Renilla ERalpha transient, cmpd/DMSO (mean) (Renilla_ERa; 40 uM): 1.0
CC1CCN(c2nc(NCCN3CCOCC3)nc(N3CC4CC(C3)c3cccc(=O)n3C4)n2)CC1 (stereo not drawn) [Compound 43]	1.0	0.9	0.8	1.4	1.2	1.4	–	–	–	–	–	–	–	–	–	–	–	–	fold induction at 2 µM (Renilla; 2 uM, clone F4): 1; fold induction at 10 µM (Renilla; 10 uM, clone F4): 1.1; fold induction at 40 µM (Renilla; 40 uM, clone F4): 1.1; fold induction at 2 µM (Renilla_ERa; 2 uM): 1.1; fold induction at 10 µM (Renilla_ERa; 10 uM): 1; fold induction at 40 µM (Renilla_ERa; 40 uM): 1
O=C(O)c1ccc(-n2ncc(Cl)c(Cl)c2=O)cc1 [Compound 44]	1.3	1.5	0.7	1.5	0.5	1.3	–	–	–	–	–	–	–	–	–	–	–	–	fold induction at 2 µM (Renilla; 2 uM, clone F4): 1.1; fold induction at 10 µM (Renilla; 10 uM, clone F4): 1.1; fold induction at 40 µM (Renilla; 40 uM, clone F4): 0.3; fold induction at 2 µM (Renilla_ERa; 2 uM): 1.3; fold induction at 10 µM (Renilla_ERa; 10 uM): 1.2; fold induction at 40 µM (Renilla_ERa; 40 uM): 0.3
O=c1c(Cl)c(Cl)cnn1-c1ccccc1 [Compound 45]	3.2	1.2	0.7	1.8	0.6	1.6	–	–	–	–	–	–	–	–	–	–	–	–	fold induction at 2 µM (Renilla; 2 uM, clone F4): 1.6; fold induction at 10 µM (Renilla; 10 uM, clone F4): 0.8; fold induction at 40 µM (Renilla; 40 uM, clone F4): 0.2; fold induction at 2 µM (Renilla_ERa; 2 uM): 1.6; fold induction at 10 µM (Renilla_ERa; 10 uM): 0.8; fold induction at 40 µM (Renilla_ERa; 40 uM): 0.2
Cc1ccc(NC(=O)c2noc3c2CC(C)(C)CC3)cc1C [Compound Z1]	–	–	–	–	–	–	1.3	1.6	0.8	1.9	1.8	0.8	2.4	0.9	2.2	1.1	1	0.7	–
Cc1ccc(NC(=O)c2n[nH]c3c2CCCCC3)cc1C [Compound Z2]	–	–	–	–	–	–	1.2	1.8	1.2	1.4	1.9	0.6	1.6	0.7	1.1	1.2	1.1	1	–
COc1cccc(-c2noc(Cn3nccc(Cl)c3=O)n2)c1 [Compound Z3]	–	–	–	–	–	–	1.5	1.4	0.9	1.5	1.1	1.6	2.2	1.7	2.6	1.1	1	0.9	–
COc1cccc(-c2noc(Cn3ncc(Cl)cc3=O)n2)c1 [Compound Z4]	–	–	–	–	–	–	1.1	1.6	1.4	1.5	1.2	0.8	1.5	0.8	1.4	1.2	1.1	0.8	–
COc1cccc(-c2noc(Cn3ncccc3=O)n2)c1 [Compound Z5]	–	–	–	–	–	–	1	0.9	1.2	1.5	0.9	1.2	2.4	2.4	2.5	1	1	1	–
COc1cccc(-c2noc(Cn3ncc4ccccc4c3=O)n2)c1 [Compound Z6]	–	–	–	–	–	–	–	–	–	1.4	1.4	1.1	2.0	1.1	2.2	–	–	–	Renilla F4, cmpd/DMSO (mean) (Renilla; Table 15, 2 uM): 1.1; Renilla F4, cmpd/DMSO (mean) (Renilla; Table 15, 10 uM): 1.1; Renilla F4, cmpd/DMSO (mean) (Renilla; Table 15, 40 uM): 0.9; Renilla ERalpha transient, cmpd/DMSO (mean) (Renilla_ERa; Table 15, 2 uM): 1.1; Renilla ERalpha transient, cmpd/DMSO (mean) (Renilla_ERa; Table 15, 10 uM): 1.1; Renilla ERalpha transient, cmpd/DMSO (mean) (Renilla_ERa; Table 15, 40 uM): 0.9
COc1ccc(-c2noc(Cn3ncc4ccccc4c3=O)n2)cc1 [Compound Z7]	–	–	–	–	–	–	1.3	1.1	1.1	0.9	1.2	1.0	1.3	1.5	2.0	1.1	1.1	1	–
